Reference: US8071581B2, “Triazolopyridazine protein kinase modulators” (SGX Pharmaceuticals, Inc., priority 2006, dated 2011)

Columns and labels:
[1] = target: MET kinase (c-MET), kinase domain of human Met (Homo sapiens, UniProt P08581); assay: MET luminescence-based enzyme assay (Kinase-Glo)
GTL16 = GTL16 cell assay (EC50); format: cell-based; details: Homo sapiens, GTL 16
Procedure: Compounds were tested in the following assays in duplicate. 96-well XTT assay: Cells were grown in growth media containing various concentrations of compounds (duplicates) on a 96-well flat bottom plate for 72 hours at 37° C. in 5% CO2. The starting cell number was 5000 cells per well and volume was 120 μl. At the end of the 72-hour incubation, 40 μl of XTT labeling mixture (50:1 solution of sodium 3′-[1-(phenylaminocarbonyl)-3,4-tetrazolium]-bis(4-methoxy-6-nitro) benzene sulfonic acid hydrate and Electron-coupling reagent: PMS (N-methyl dibenzopyrazine methyl sulfate) were added to each well of the plate. After an additional 2-6 hours […] with a spectrophotometer.

MET kinase (c-MET), kinase domain of human Met, sequence (P08581 1078-1345 limits assumed): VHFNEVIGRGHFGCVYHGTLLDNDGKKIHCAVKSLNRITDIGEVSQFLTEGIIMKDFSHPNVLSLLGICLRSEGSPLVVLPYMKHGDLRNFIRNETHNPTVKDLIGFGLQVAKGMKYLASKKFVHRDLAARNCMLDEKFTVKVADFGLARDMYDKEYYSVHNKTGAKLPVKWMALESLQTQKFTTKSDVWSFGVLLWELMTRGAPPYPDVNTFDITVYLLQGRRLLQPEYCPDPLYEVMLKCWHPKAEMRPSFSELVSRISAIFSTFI

SMILES	IC50 [1]	EC50 (GTL16; Table 1)	EC50 (GTL16; Table 2)
CCNC(=O)c1ccc(-c2ccc3nnc(Cc4ccc5ncsc5c4)n3n2)cc1F [compound 94]	0.1 to 1 µM	0.1 to 1 µM	
O=C(NC1CCCC1)c1cccc(-c2ccc3nnc(Cc4ccc5ncccc5c4)n3n2)c1 [compound 33]	0.1 to 1 µM	0.1 to 1 µM	
O=S(=O)(c1ccc(-c2ccc3nnc(Cc4ccc5ncccc5c4)n3n2)cc1)N1CCOCC1 [compound 62]	< 0.1 µM	0.1 to 1 µM	
Cc1ccc2nnc(Cc3ccc4ncc(-c5cccnc5)cc4c3)n2n1 [compound 131]	< 0.1 µM		< 0.1 µM
Fc1ccc(-c2ccc3nnc(Cc4ccc5ncccc5c4)n3n2)cc1C(F)(F)F [compound 77]	0.1 to 1 µM	< 0.1 µM	
Cc1ccc(-c2ccc3nnc(Cc4ccc5ncccc5c4)n3n2)cc1 [compound 36]	< 0.1 µM	< 0.1 µM	
Cc1ccc2nnc(Cc3ccc4ncc(-c5cccc(C#N)c5)cc4c3)n2n1 [compound 130]	< 0.1 µM		< 0.1 µM
Clc1nc2ccc(Cc3nnc4ccc(-c5ccccc5)nn34)cc2s1 [compound 44]	1 to 10 µM		
c1ccc(-c2ccc3nnc(Cc4ccc5ncccc5c4)n3n2)cc1 [compound 16]	0.1 to 1 µM	0.1 to 1 µM	
Brc1cnc2ccc(Cc3nnc4nccnn34)cc2c1 [compound 117, 3-Bromo-6-[1,2,4]triazolo[4,3-b][1,2,4]triazin-3-ylmethyl-quinoline]	< 0.1 µM	< 0.1 µM	
Cc1ccc2nnc(Cc3ccc4ncc(-c5cncnc5)cc4c3)n2n1 [compound 129]	0.1 to 1 µM		1 to 10 µM
C/C=C/c1ccc2nnc(Cc3ccc4ncccc4c3)n2n1 [compound 46]	0.1 to 1 µM	0.1 to 1 µM	
Cc1ccc2nnc(Cc3ccc4ncc(-c5c[nH]nc5C)cc4c3)n2n1 [compound 150]	0.1 to 1 µM		
CN(C)S(=O)(=O)c1ccc(-c2ccc3nnc(Cc4ccc5ncccc5c4)n3n2)cc1 [compound 29]	0.1 to 1 µM	1 to 10 µM	
NCc1ccc(-c2ccc3nnc(Cc4ccc5ncccc5c4)n3n2)cc1 [compound 32]	< 0.1 µM	< 0.1 µM	
Fc1ccc(-c2ccc3nnc(Cc4ccc5ncccc5c4)n3n2)cc1F [compound 73]		< 0.1 µM	
CC(C)(c1ccc2ncccc2c1)c1nnc2ccc(-c3ccccc3)nn12 [compound 18]	10 to 50 µM		
FC(F)(F)c1cccc(-c2ccc3nnc(Cc4ccc5ncccc5c4)n3n2)c1 [compound 78]	< 0.1 µM	< 0.1 µM	
Fc1cc(F)cc(-c2ccc3nnc(Cc4ccc5ncsc5c4)n3n2)c1 [compound 97]	0.1 to 1 µM		
CCNS(=O)(=O)c1cccc(-c2ccc3nnc(Cc4ccc5ncccc5c4)n3n2)c1 [compound 3]	< 0.1 µM	< 0.1 µM	
Cc1ccc2nnc(Cc3ccc4ncc(-n5ccnc5)cc4c3)n2n1 [compound 132, 3-Imidazol-1-yl-6-(6-methyl-[1,2,4]triazolo[4,3-b]pyridazin-3-ylmethyl)-quinoline]	0.1 to 1 µM		0.1 to 1 µM
Oc1ccc(Cc2nnc3ccc(Cl)nn23)cc1 [compound 13]	1 to 10 µM	10 to 50 µM	

SMILES	IC50 [1]	EC50 (GTL16; Table 1)	EC50 (GTL16; Table 2)
CCc1cnc2ccc(Cc3nnc4ccc(C)nn34)cc2c1 [compound 116, 3-Ethyl-6-(6-methyl-[1,2,4]triazolo[4,3-b]pyridazin-3-ylmethyl)-quinoline]	< 0.1 µM		
CNC(=O)c1ccc(-c2ccc3nnc(Cc4ccc5ncccc5c4)n3n2)cc1 [compound 66]	< 0.1 µM	0.1 to 1 µM	
Cn1cnc2ccc(Cc3nnc4ccc(-c5ccccc5)nn34)cc21 [compound 68, 3-(3-Methyl-3H-benzoimidazol-5-ylmethyl)-6-phenyl-[1,2,4]triazolo[4,3-b]pyridazine]	0.1 to 1 µM	0.1 to 1 µM	
Cc1ccc2nnc(Cc3ccc4ncc(-c5cc6ccccc6[nH]5)cc4c3)n2n1 [compound 137]	< 0.1 µM		0.1 to 1 µM
Cc1ccc2nnc(Cc3ccc4ncc(-n5cccn5)cc4c3)n2n1 [compound 127]	0.1 to 1 µM		
Cc1ccc2cc(Cc3nnc4ccc(-c5ccccc5)nn34)ccc2n1 [compound 38, 2-Methyl-6-(6-phenyl-[1,2,4]triazolo[4,3-b]pyridazin-3-ylmethyl)-quinoline]	1 to 10 µM		
Cc1ccc2nnc(Cn3ccc4ncc(-c5cnn(C)c5)cc43)n2n1 [compound 178]	1 to 10 µM		
Cc1ccc2nnc(Cc3ccc4ncc(C#N)cc4c3)n2n1 [compound 110, 6-(6-Methyl-[1,2,4]triazolo[4,3-b]pyridazin-3-ylmethyl)-quinoline-3-carbonitrile]	1 to 10 µM		
Cn1cc(-c2ccc3nnc(Cc4c[nH]c5ncccc45)n3n2)cn1 [compound 108, 6-(1-Methyl-1H-pyrazol-4-yl)-3-(1H-pyrrolo[2,3-b]pyridine-3-ylmethyl)-[1,2,4]triazolo[4,3-b]pyridazine]		< 0.1 µM	
Cc1ccc2nnc(Cc3ccc4ncc(Br)cc4c3)n2n1 [compound 106]	0.1 to 1 µM		
Cc1cc(Cc2nnc3ccc(-c4cnn(C)c4)nn23)cc2cccnc12 [compound 91]	1 to 10 µM		
Clc1ccc2nnc(Cc3ccc4ncccc4c3)n2n1 [compound 15, 6-(6-Chloro-[1,2,4]triazolo[4,3-b]pyridazin-3-ylmethyl)-quinoline]		1 to 10 µM	
N#Cc1ccc(-c2ccc3nnc(Cc4ccc5ncccc5c4)n3n2)cc1 [compound 60]		0.1 to 1 µM	
Cc1ccc2nnc(C(C)c3ccc4ncc(Br)cc4c3)n2n1 (stereo not drawn) [compound 119, 3-Bromo-6-[1-(6-methyl-[1,2,4]triazolo[4,3-b]pyridazin-3-yl)-ethyl]-quinoline]	< 0.1 µM		
Cc1ccc2nnc(C(C)c3ccc4ncc(-c5cnn(C)c5)cc4c3)n2n1 (stereo not drawn) [compound 191]	< 0.1 µM		
Cc1ccc2nnc(Cc3ccc4ncccc4c3)n2n1 [compound 105]	0.1 to 1 µM		
N#Cc1cccc(-c2ccc3nnc(Cc4ccc5ncccc5c4)n3n2)c1 [compound 59]		< 0.1 µM	
c1ccc(-c2ccc3nnc(CCc4ccc5ncccc5c4)n3n2)cc1 [compound 39]	10 to 50 µM		
c1ccc(-c2ccc3nnc([C@H]4C[C@@H]4c4ccc5ncccc5c4)n3n2)cc1 [compound 40]	10 to 50 µM		
C[C@H](c1ccc2ncsc2c1)c1nnc2ccc(-c3cccc(C#N)c3)nn12 [compound 104, I-3-[3-(1-Benzothiazol-6-yl-ethyl)-[1,2,4]triazolo[4,3-b]pyridazin-6-yl]-benzonitrile]	0.1 to 1 µM		
Fc1cccc(-c2ccc3nnc(Cc4ccc5ncsc5c4)n3n2)c1 [compound 93]	1 to 10 µM		

Next, values leading:

IC50 [1]	EC50 (GTL16; Table 1)	EC50 (GTL16; Table 2)	SMILES
< 0.1 µM		1 to 10 µM	Cc1ccc2nnc(Cc3ccc4ncc(-c5cnn(CC(N)=O)c5)cc4c3)n2n1 [compound 149, 2-{4-[6-(6-Methyl-[1,2,4]triazolo[4,3-b]pyridazin-3-ylmethyl)-quinolin-3-yl]-pyrazol-1-yl}-acetamide]
< 0.1 µM		< 0.1 µM	COCCn1cc(-c2cnc3ccc(Cc4nnc5ccc(C)nn45)cc3c2)cn1 [compound 147]
< 0.1 µM		0.1 to 1 µM	Cc1ccc2nnc(Cc3ccc4ncc(-c5cnn(CCO)c5)cc4c3)n2n1 [compound 144, 2-{4-[6-(6-Methyl-[1,2,4]triazolo[4,3-b]pyridazin-3-ylmethyl)-quinolin-3-yl]pyrazol-1-yl}-ethanol]
< 0.1 µM		< 0.1 µM	CCC(=O)Cn1cc(-c2cnc3ccc(Cc4nnc5ccc(C)nn45)cc3c2)cn1 [compound 143]
< 0.1 µM		0.1 to 1 µM	Cc1ccc2nnc(Cc3ccc4ncc(-c5cnn(CCC(N)=O)c5)cc4c3)n2n1 [compound 154]
< 0.1 µM		1 to 10 µM	Cc1ccc2nnc(Cc3c(F)cc4ncc(-c5cnn(CC(=O)O)c5)cc4c3F)n2n1 [compound 151]
< 0.1 µM		< 0.1 µM	Cc1ccc2nnc(Cc3c(F)cc4ncc(-c5cnn(C)c5)cc4c3F)n2n1 [compound 145, 5,7-Difluoro-3-(1-methyl-1H-pyrazol-4-yl)-6-(6-methyl-[1,2,4]triazolo[4,3b]pyridazin-3-ylmethyl)-quinoline]
< 0.1 µM		0.1 to 1 µM	Cc1ccc2nnc(Cc3ccc4ncc(-c5cnn(CC6CNC6)c5)cc4c3)n2n1 [compound 155, 3-(1-Azetidin-3-ylmethyl-1H-pyrazol-4-yl)-6-(6-methyl-[1,2,4]triazolo[4,3-b]pyridazin-3-ylmethyl)-quinoline]
1 to 10 µM			Cn1cc(-c2ccc3nnc(Cc4cc(F)c5ncccc5c4)n3n2)cn1 [compound 92]
< 0.1 µM			CCc1ccc2nnc(Cc3ccc4ncc(-c5cnn(C6CN(CC)C6)c5)cc4c3F)n2n1 [compound 186]
< 0.1 µM			CCc1ccc2nnc(Cc3c(F)cc4ncc(-c5cnn(C6CNC6)c5)cc4c3F)n2n1 [compound 185]
< 0.1 µM			CCN1CC(n2cc(-c3cnc4cc(F)c(Cc5nnc6ccc(C)nn56)c(F)c4c3)cn2)C1 [compound 188]
< 0.1 µM			CCc1ccc2nnc(Cc3ccc4ncc(-c5cnn(C6CNC6)c5)cc4c3F)n2n1 [compound 184]
0.1 to 1 µM			CCc1ccc2nnc(Cc3c(F)cc4ncc(Br)cc4c3F)n2n1 [compound 115]
< 0.1 µM			CCc1ccc2nnc(Cc3c(F)cc4ncc(-c5cnn(C6CN(CC)C6)c5)cc4c3F)n2n1 [compound 187]
< 0.1 µM			CCc1ccc2nnc(Cc3ccc4ncc(-c5cnn(C6CNC6)c5)cc4c3)n2n1 [compound 189]
< 0.1 µM			CCN1CC(n2cc(-c3cnc4ccc(C(C)c5nnc6ccc(C)nn56)cc4c3)cn2)C1 (stereo not drawn) [compound 190]
< 0.1 µM			Cc1ccc2nnc(Cc3ccc4ncc(-c5cnn(C6CN(C)C6)c5)cc4c3)n2n1 [compound 183]
0.1 to 1 µM			CCc1ccc2nnc(Cc3ccc4ncc(Br)cc4c3F)n2n1 [compound 121]
